Where two headings read alike, the source gives them in different places.
Assays:
[1] = system: wild type AB strain zebrafish; settings: 30 embryos per well
Description: Zebrafish were incubated and grown in the Joint Laboratory established by Shandong Rui’ying Pharmaceutical Group (Heze, China) and China Pharmaceutical University. Both the Wild-type AB (Danio rerio) and Tg(mpx:eGFP) zebrafish strains were maintained under the guidance of the standard procedures of The Zebrafish Book. […] Then the zebrafish were allowed to naturally mate and spawn the next morning. The normally born embryos were then collected after 1 h and kept in an incubating system at 28 °C. The 6 hpf (hour post fertilization) embryos were transferred into a 6-well plate exposed to 5 mL of egg water, in which 30 embryos were in each well.

[2] = Description: All tests were conducted in the animal experimental center of Guangxi Medical University. Preliminary experiments were needed before starting official tests. […] Groups of mice (n = 10 per group, half male and half female) received different doses of the tested compounds by gavage at the same single dose of drug solution, which was uniformed to be […] (drug solution)/10 g, but containing different concentration of tested drugs. […] We compared these mice with the control group in which the mice were not given drugs, according to the pre-experimental procedure. We closely observed the mice for 6 h after the gavage for signs of toxicity and mortality. As soon as death occurred among the maximum-dose group, we conducted an autopsy and took samples from the main organs for histopathological examination. In addition, we monitored all of the tested mice for 2 weeks to record their weight and mortality.
[3] = system: H2O2-induced ROS production; assay: H2O2-induced oxidative stress model in zebrafish (DCFH-DA); settings: 48 h pre-treatment, H2O2 1.0 mM 4 h, H2O2-induced 17,250, control 590
[4] = Pharmacokinetic study in plasma after oral administration (HPLC-MS); settings: SD rats, plasma, EFX 10 mg/kg, EFX-Ca 12 mg/kg
[5] = system: E. coli; assay: Quasi-clinical trial on E. coli-infected AA broilers (drug-mixed feeding); settings: AA broilers
Description: (§1) Then, broilers were randomly and equally divided into five different groups and marked as five groups. […] Note that the daily drug-mixed feeding ratio (g drug/kg feed) was indicated for the first 4 h every day, and unmedicated feed then followed. In addition, E. coli strains for the infection of chicken was supplied as a freeze-dried powder. They were revived and cultured according to the standard procedures. The strain was inoculated into a liquid medium and cultured in a 37 °C incubator for 6–8 h. We detected the concentration of the bacterial liquid to be 2.8 × 10^8 CFU/mL as the pathogenic concentration. Finally, all of the chickens except the healthy control group were intramuscularly injected with 0.5 mL of pathogenic bacteria, and all chickens were fasted for 4 h. After successfully simulating the bacterial infection of the chickens, the drug-mixed feeding chickens were continuously fed for 6 d. During this time, we observed their behavioral habits, mortality, and recovery rates.

[6] = system: neutrophil cluster aggregation; assay: CuSO4-induced inflammation model in Tg(mpx:eGFP) zebrafish; settings: 10 μM CuSO4 40 min, Tg(mpx:eGFP) 3 dpf
[7] = system: E. coli; assay: Quasi-clinical trial on E. coli-infected 817 broilers (drug-mixed feeding); settings: 817 broilers
Description: as §1

[8] = 0.01 μM medicated bath, 120 hpf

For CCN1CCN(c2cc3c(cc2F)c(=O)c(C(=O)O)cn3C2CC2)CC1 [EFX, enrofloxacin, reference compound], the “statistical death of the tested zebrafish” value (“statistical death” for short) ([1]; 0.01 μM medicated bath, 24 hpf) was 6, the “statistical survival of the tested zebrafish” value (“statistical survival” below) ([1]; 0.01 μM medicated bath, 24 hpf) was 24 and the “statistical death” value ([1]; 0.01 μM medicated bath, 48 hpf) was 6. For the same molecule, the “statistical survival” value ([1]; 0.01 μM medicated bath, 48 hpf) was 24, the “statistical death” value ([1]; 0.01 μM medicated bath, 72 hpf) was 6 and the “statistical survival” value ([1]; 0.01 μM medicated bath, 72 hpf) was 24. The “statistical death” value ([1]; 0.01 μM medicated bath, 96 hpf) was 6, the “statistical survival” value ([1]; 0.01 μM medicated bath, 96 hpf) was 24 and the “statistical death” value [1, 8] was 6. The “statistical survival” value [1, 8] was 24, the “statistical death” value ([1]; 0.1 μM medicated bath, 24 hpf) was 4 and the “statistical survival” value ([1]; 0.1 μM medicated bath, 24 hpf) was 26. For the same molecule, the “statistical death” value ([1]; 0.1 μM medicated bath, 48 hpf) was 4, the “statistical survival” value ([1]; 0.1 μM medicated bath, 48 hpf) was 26 and the “statistical death” value ([1]; 0.1 μM medicated bath, 72 hpf) was 4. For the same molecule, the “statistical survival” value ([1]; 0.1 μM medicated bath, 72 hpf) was 26, the “statistical death” value ([1]; 0.1 μM medicated bath, 96 hpf) was 4 and the “statistical survival” value ([1]; 0.1 μM medicated bath, 96 hpf) was 26. For the same molecule, the “statistical death” value ([1]; 0.1 μM medicated bath, 120 hpf) was 4, the “statistical survival” value ([1]; 0.1 μM medicated bath, 120 hpf) was 26 and the “statistical death” value ([1]; 1 μM medicated bath, 24 hpf) was 2. The “statistical survival” value ([1]; 1 μM medicated bath, 24 hpf) was 28, the “statistical death” value ([1]; 1 μM medicated bath, 48 hpf) was 2 and the “statistical survival” value ([1]; 1 μM medicated bath, 48 hpf) was 28. The “statistical death” value ([1]; 1 μM medicated bath, 72 hpf) was 2, the “statistical survival” value ([1]; 1 μM medicated bath, 72 hpf) was 28 and the “statistical death” value ([1]; 1 μM medicated bath, 96 hpf) was 2. For the same molecule, the “statistical survival” value ([1]; 1 μM medicated bath, 96 hpf) was 28, the “statistical death” value ([1]; 1 μM medicated bath, 120 hpf) was 2 and the “statistical survival” value ([1]; 1 μM medicated bath, 120 hpf) was 28. The “statistical death” value ([1]; 10 μM medicated bath, 24 hpf) was 2, the “statistical survival” value ([1]; 10 μM medicated bath, 24 hpf) was 28 and the “statistical death” value ([1]; 10 μM medicated bath, 48 hpf) was 2. The “statistical survival” value ([1]; 10 μM medicated bath, 48 hpf) was 28, the “statistical death” value ([1]; 10 μM medicated bath, 72 hpf) was 2 and the “statistical survival” value ([1]; 10 μM medicated bath, 72 hpf) was 28. The “statistical death” value ([1]; 10 μM medicated bath, 96 hpf) was 2, the “statistical survival” value ([1]; 10 μM medicated bath, 96 hpf) was 28 and the “statistical death” value ([1]; 10 μM medicated bath, 120 hpf) was 2. The “statistical survival” value ([1]; 10 μM medicated bath, 120 hpf) was 28, the “statistical death” value ([1]; 20 μM medicated bath, 24 hpf) was 4 and the “statistical survival” value ([1]; 20 μM medicated bath, 24 hpf) was 26. For the same molecule, the “statistical death” value ([1]; 20 μM medicated bath, 48 hpf) was 4, the “statistical survival” value ([1]; 20 μM medicated bath, 48 hpf) was 26 and the “statistical death” value ([1]; 20 μM medicated bath, 72 hpf) was 4. The “statistical survival” value ([1]; 20 μM medicated bath, 72 hpf) was 26, the “statistical death” value ([1]; 20 μM medicated bath, 96 hpf) was 4 and the “statistical survival” value ([1]; 20 μM medicated bath, 96 hpf) was 26. The “statistical death” value ([1]; 20 μM medicated bath, 120 hpf) was 4, the “statistical survival” value ([1]; 20 μM medicated bath, 120 hpf) was 26 and the “Body Weight (g, x¯ ± SD)” value ([2]; 2000 mg/kg single gavage, Day-0) was 18.35 ± 1.87 g. The “Body Weight (g, x¯ ± SD)” value ([2]; 2000 mg/kg single gavage, Day-1) was 20.21 ± 2.06 g, the “Body Weight (g, x¯ ± SD)” value ([2]; 2000 mg/kg single gavage, Day-4) was 25.19 ± 1.81 g and the “Body Weight (g, x¯ ± SD)” value ([2]; 2000 mg/kg single gavage, Day-7) was 28.89 ± 1.99 g. The “Body Weight (g, x¯ ± SD)” value ([2]; 2000 mg/kg single gavage, Day-14) was 36.93 ± 3.07 g, the “Body Weight (g, x¯ ± SD)” value ([2]; 3031 mg/kg single gavage, Day-0) was 18.40 ± 1.78 g and the “Body Weight (g, x¯ ± SD)” value ([2]; 3031 mg/kg single gavage, Day-1) was 19.20 ± 2.18 g. The “Body Weight (g, x¯ ± SD)” value ([2]; 3031 mg/kg single gavage, Day-4) was 24.83 ± 3.08 g, the “Body Weight (g, x¯ ± SD)” value ([2]; 3031 mg/kg single gavage, Day-7) was 29.17 ± 2.51 g and the “Body Weight (g, x¯ ± SD)” value ([2]; 3031 mg/kg single gavage, Day-14) was 33.20 ± 4.46 g. The “Body Weight (g, x¯ ± SD)” value ([2]; 4595 mg/kg single gavage, Day-0) was 18.67 ± 1.05 g, the “Body Weight (g, x¯ ± SD)” value ([2]; 4595 mg/kg single gavage, Day-1) was 19.14 ± 0.96 g and the “Body Weight (g, x¯ ± SD)” value ([2]; 4595 mg/kg single gavage, Day-4) was 23.54 ± 1.44 g. For the same molecule, the “Body Weight (g, x¯ ± SD)” value ([2]; 4595 mg/kg single gavage, Day-7) was 28.20 ± 1.52 g, the “Body Weight (g, x¯ ± SD)” value ([2]; 4595 mg/kg single gavage, Day-14) was 33.96 ± 2.53 g and the “Body Weight (g, x¯ ± SD)” value ([2]; 6964 mg/kg single gavage, Day-0) was 18.59 ± 1.34 g. The “Body Weight (g, x¯ ± SD)” value ([2]; 6964 mg/kg single gavage, Day-1) was 19.68 ± 1.06 g, the “Body Weight (g, x¯ ± SD)” value ([2]; 6964 mg/kg single gavage, Day-4) was 23.85 ± 1.88 g and the “Body Weight (g, x¯ ± SD)” value ([2]; 6964 mg/kg single gavage, Day-7) was 27.98 ± 3.40 g. The “Body Weight (g, x¯ ± SD)” value ([2]; 6964 mg/kg single gavage, Day-14) was 36.13 ± 5.35 g, the “Body Weight (g, x¯ ± SD)” value ([2]; 16,000 mg/kg single gavage, Day-0) was 18.86 ± 1.03 g and the “Body Weight (g, x¯ ± SD)” value ([2]; 16,000 mg/kg single gavage, Day-1) was 18.55 ± 1.70 g. The “Body Weight (g, x¯ ± SD)” value ([2]; 16,000 mg/kg single gavage, Day-7) was 24.35 ± 2.63 g, the “Body Weight (g, x¯ ± SD)” value ([2]; 16,000 mg/kg single gavage, Day-14) was 33.20 ± 4.00 g and the “Average IOD (integrated optical density) of green fluorescence” value (from here on “Average IOD (integrated optical density)”) ([3]; 0.01 μM) was 970 a.u. The “Average IOD (integrated optical density)” value ([3]; 0.1 μM) was 772 a.u, the “Average IOD (integrated optical density)” value ([3]; 1 μM) was 848 a.u and the Ke [4] was 0.28. The “t 1/2β” value [4] was 2.43 H, the “Average Final Weight” value ([5]; EFX single dosage 11 g + 1.5 kg feed) was 1880 ± 113 g and the “Average Weight Gain” value ([5]; EFX single dosage 11 g + 1.5 kg feed, Table 7) was 380. For the same molecule, the “Average Increment of Weight” value ([5]; EFX single dosage 11 g + 1.5 kg feed, Table 8) was 250 g, the “Cure Rate (%)” value ([5]; EFX single dosage 11 g drug (5% solution) + 1.5 kg feed/4 h, 6 d) was 62% and the “Survival Number” value ([5]; EFX single dosage 11 g drug (5% solution) + 1.5 kg feed/4 h, 6 d, 50 per group) was 31. For the same molecule, the CuSO4-induced neutrophil aggregation ([6]; 0.1 μM pre-incubation 1 h) was “still maintained obvious clustering status”, the CuSO4-induced neutrophil aggregation ([6]; 1 μM pre-incubation 1 h) was “partial aggregations of the neutrophils could be observed” and the “Average Final Weight” value ([7]; EFX single dosage 11 g + 0.75 kg feed) was 1030 ± 74 g. The “Average Weight Gain” value ([7]; EFX single dosage 11 g + 0.75 kg feed, Table 7) was 100, the “Average Increment of Weight” value ([7]; EFX single dosage 11 g + 0.75 kg feed, Table 8) was 140 g and the “Cure Rate (%)” value ([7]; EFX single dosage 11 g drug (5% solution) + 0.75 kg feed/4 h, 6 d) was 64%. For the same molecule, the “Survival Number” value ([7]; EFX single dosage 11 g drug (5% solution) + 0.75 kg feed/4 h, 6 d, 50 per group) was 32.

— publication PMC8878047 (Pharmaceutics, 2022)
